# Experimental data as given in US20250122219A1 (priority 2023, published 2025).
# pEC50: −log10 of the molar value. Read-outs that look alike come from different tables or passages of the source.
# Columns and labels:
# [1] = test system: HIV-1 (IIIB); assay: Antiviral assay in MT-4 cells; type: cell-based; conditions: for pEC50: Human immunodeficiency virus 1, MT4, 120 h, HIV-1 IIIB in MT-4 cells, 5 days incubation, Cell Titer Glo, read-out: MT4 EC50
# In short: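 Read-out: CellTiter-Glo luminescence after 5 days at 37 °C, reflecting survival of MT-4 cells infected with HIV-1 IIIB (1:250 fresh stock dilution) versus mock-infected. Compounds serially diluted into RPMI with 10% FBS; AZT at 5 μM served as positive control.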
# [2] = Cytotoxicity assay in MT-4 cells; type: cell-based; conditions: human; uninfected MT-4 cells, 5 days incubation, Cell Titer Glo; read-out: MT4 CC50
# In short: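 Viability read by Cell Titer Glo luminescence after 5 days at 37 °C. MT-4 cells, not infected, in complete RPMI (10% FBS), received compound dilution series. Base cytotoxicity set with […] puromycin.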
Structure (SMILES),pEC50 [1],CC50 at 5 days [2],"EC50 ([1]; Human immunodeficiency virus 1, IIIB, MT4, 120 h, read-out: MT4 EC50 (nM))"
"CCC(=O)OCOc1c2n(cc(C(=O)NCc3ccc(F)cc3F)c1=O)[C@@H]1CN(C2=O)[C@@H](C)CC[C@]12CC(OC)=NO2 [Example 85, (((3′S,5S,7′R)-10′-((2,4-difluorobenzyl)carbamoyl)-3-methoxy-3′-methyl-1′,11′-dioxo-1′,4′,5′,11′-tetrahydro-3′H,4H,7′H-spiro[isoxazole-5,6′-[2,7]methanopyrido[1,2-a][1,4]diazonin]-12′-yl)oxy)methyl propionate]",8.65,28400 nM,
COC(=O)N[C@H](C(=O)Oc1c2n(cc(C(=O)NCc3ccc(F)cc3F)c1=O)[C@@H]1CN(C2=O)[C@@H](C)CC[C@]12CC(OC)=NO2)C(C)C [Example 80],8.89,19800 nM,
"CCCCCCCCCCCCCCCC(=O)Oc1c2n(cc(C(=O)NCc3ccc(F)cc3F)c1=O)[C@@H]1CN(C2=O)[C@@H](C)CC[C@]12CC(OC)=NO2 [Example 27, (3′S,5S,7′R)-10′-((2,4-difluorobenzyl)carbamoyl)-3-methoxy-3′-methyl-1′,11′-dioxo-1′,4′,5′,11′-tetrahydro-3′H,4H,7′H-spiro[isoxazole-5,6′-[2,7]methanopyrido[1,2-a][1,4]diazonin]-12′-yl palmitate]",8.35,≥ 50000 nM,
"CCCC(=O)OCOc1c2n(cc(C(=O)NCc3ccc(F)cc3F)c1=O)[C@@H]1CN(C2=O)[C@@H](C)CC[C@]12CC(C)=NO2 [Example 88, (((3′S,5S,7′R)-10′-((2,4-difluorobenzyl)carbamoyl)-3,3′-dimethyl-1′,11′-dioxo-1′,4′,5′,11′-tetrahydro-3′H,4H,7′H-spiro[isoxazole-5,6′-[2,7]methanopyrido[1,2-a][1,4]diazonin]-12′-yl)oxy)methyl butyrate]",8.75,20400 nM,
"COCCOC(=O)Oc1c2n(cc(C(=O)NCc3ccc(F)cc3F)c1=O)[C@@H]1CN(C2=O)[C@@H](C)CC[C@]12CC(OC)=NO2 [Example 1, (3′S,5S,7′R)-10′-((2,4-difluorobenzyl)carbamoyl)-3-methoxy-3′-methyl-1′,11′-dioxo-1′,4′,5′,11′-tetrahydro-3′H,4H,7′H-spiro[isoxazole-5,6′-[2,7]methanopyrido[1,2-a][1],4diazonin]-12′-yl (2-methoxyethyl) carbonate]",8.83,10900 nM,
"CCCC/C=C\CCCCCCCC(=O)Oc1c2n(cc(C(=O)NCc3ccc(F)cc3F)c1=O)[C@@H]1CN(C2=O)[C@@H](C)CC[C@]12CC(OC)=NO2 [Example 31, (3′S,5S,7′R)-10′-((2,4-difluorobenzyl)carbamoyl)-3-methoxy-3′-methyl-1′,11′-dioxo-1′,4′,5′,11′-tetrahydro-3′H,4H,7′H-spiro[isoxazole-5,6′-[2,7]methanopyrido[1,2-a][1,4]diazonin]-12′-yl (Z)-tetradec-9-enoate]",8.62,15700 nM,
"CC/C=C\C/C=C\C/C=C\C/C=C\C/C=C\CCCC(=O)Oc1c2n(cc(C(=O)NCc3ccc(F)cc3F)c1=O)[C@@H]1CN(C2=O)[C@@H](C)CC[C@]12CC(C)=NO2 [Example 68, (3′S,5S,7′R)-10′-((2,4-difluorobenzyl)carbamoyl)-3,3′-dimethyl-1′,11′-dioxo-1′,4′,5′,11′-tetrahydro-3′H,4H,7′H-spiro[isoxazole-5,6′-[2,7]methanopyrido[1,2-a][1,4]diazonin]-12′-yl (5Z,8Z,11Z,14Z,17Z)-icosa-5,8,11,14,17-pentaenoate]",8.96,16500 nM,
"COCCOCCOC(=O)Oc1c2n(cc(C(=O)NCc3ccc(F)cc3F)c1=O)[C@@H]1CN(C2=O)[C@@H](C)CC[C@]12CC(OC)=NO2 [Example 2, (3′S,5S,7′R)-1O′-((2,4-difluorobenzyl)carbamoyl)-3-methoxy-3′-methyl-1′,11′-dioxo-1′,4′,5′,11′-tetrahydro-3′H,4H,7′H-spiro[isoxazole-5,6′-[2,7]methanopyrido[1,2-a][1,4]diazonin]-12′-yl (2-(2-methoxyethoxy)ethyl) carbonate]",,11500 nM,0.79 nM

# The next lines start with results.
pEC50 [1],Structure (SMILES),CC50 at 5 days [2],"EC50 ([1]; Human immunodeficiency virus 1, IIIB, MT4, 120 h, read-out: MT4 EC50 (nM))"
9.24,"CC1=NO[C@@]2(CC[C@H](C)N3C[C@H]2n2cc(C(=O)NCc4ccc(F)cc4F)c(=O)c(OC(=O)OCCCC(C)C)c2C3=O)C1 [Example 152, (3′S,5S,7′R)-10′-((2,4-difluorobenzyl)carbamoyl)-3,3′-dimethyl-1′,11′-dioxo-1′,4′,5′,11′-tetrahydro-3′H,4H,7′H-spiro[isoxazole-5,6′-[2,7]methanopyrido[1,2-a][1,4]diazonin]-12′-yl (4-methylpentyl) carbonate]",14900 nM,
8.56,"CCCCCCC(=O)OCOc1c2n(cc(C(=O)NCc3ccc(F)cc3F)c1=O)[C@@H]1CN(C2=O)[C@@H](C)CC[C@]12CC(C)=NO2 [Example 94, (((3′S,5S,7′R)-10′-((2,4-difluorobenzyl)carbamoyl)-3,3′-dimethyl-1′,11′-dioxo-1′,4′,5′,11′-tetrahydro-3′H,4H,7′H-spiro[isoxazole-5,6′-[2,7]methanopyrido[1,2-a][1,4]diazonin]-12′-yl)oxy)methyl heptanoate]",17600 nM,
9.19,"COC1=NO[C@@]2(CC[C@H](C)N3C[C@H]2n2cc(C(=O)NCc4ccc(F)cc4F)c(=O)c(OC(=O)OCCCC(C)C)c2C3=O)C1 [Example 153, (3′S,5S,7′R)-10′-((2,4-difluorobenzyl)carbamoyl)-3-methoxy-3′-methyl-1′,11′-dioxo-1′,4′,5′,11′-tetrahydro-3′H,4H,7′H-spiro[isoxazole-5,6′-[2,7]methanopyrido[1,2-a][1,4]diazonin]-12′-yl (4-methylpentyl) carbonate]",23600 nM,
8.54,"COC1=NO[C@@]2(CC[C@H](C)N3C[C@H]2n2cc(C(=O)NCc4ccc(F)cc4F)c(=O)c(OCOC(=O)CCCCCCC(C)C)c2C3=O)C1 [Example 119, (((3′S,5S,7′R)-10′-((2,4-difluorobenzyl)carbamoyl)-3-methoxy-3′-methyl-1′,11′-dioxo-1′,4′,5′,11′-tetrahydro-3′H,4H,7′H-spiro[isoxazole-5,6′-[2,7]methanopyrido[1,2-a][1,4]diazonin]-12′-yl)oxy)methyl 8-methylnonanoate]",43800 nM,
8.82,"COC1=NO[C@@]2(CC[C@H](C)N3C[C@H]2n2cc(C(=O)NCc4ccc(F)cc4F)c(=O)c(OCOC(=O)CC(C)C)c2C3=O)C1 [Example 110, (((3′S,5S,7′R)-10′-((2,4-difluorobenzyl)carbamoyl)-3-methoxy-3′-methyl-1′,11′-dioxo-1′,4′,5′,11′-tetrahydro-3′H,4H,7′H-spiro[isoxazole-5,6′-[2,7]methanopyrido[1,2-a][1,4]diazonin]-12′-yl)oxy)methyl 3-methylbutanoate]",16400 nM,
8.93,"COC(=O)Oc1c2n(cc(C(=O)NCc3ccc(F)cc3F)c1=O)[C@@H]1CN(C2=O)[C@@H](C)CC[C@]12CC(C)=NO2 [Example 121, (3′S,5S,7′R)-10′-((2,4-difluorobenzyl)carbamoyl)-3,3′-dimethyl-1′,11′-dioxo-1′,4′,5′,11′-tetrahydro-3′H,4H,7′H-spiro[isoxazole-5,6′-[2,7]methanopyrido[1,2-a][1,4]diazonin]-12′-yl methyl carbonate]",18900 nM,
9.33,"CCCCCCCCCC(=O)OCOc1c2n(cc(C(=O)NCc3ccc(F)cc3F)c1=O)[C@@H]1CN(C2=O)[C@@H](C)CC[C@]12CC(OC)=NO2 [Example 99, (((3′S,5S,7′R)-10′-((2,4-difluorobenzyl)carbamoyl)-3-methoxy-3′-methyl-1′,11′-dioxo-1′,4′,5′,11′-tetrahydro-3′H,4H,7′H-spiro[isoxazole-5,6′-[2,7]methanopyrido[1,2-a][1,4]diazonin]-12′-yl)oxy)methyl decanoate]",≥ 50000 nM,
8.68,"COCCOCCOCCOCCOCCOCCOCCOC(=O)Oc1c2n(cc(C(=O)NCc3ccc(F)cc3F)c1=O)[C@@H]1CN(C2=O)[C@@H](C)CC[C@]12CC(OC)=NO2 [Example 163, (3′S,5S,7′R)-10′-((2,4-difluorobenzyl)carbamoyl)-3-methoxy-3′-methyl-1′,11′-dioxo-1′,4′,5′,11′-tetrahydro-3′H,4H,7′H-spiro[isoxazole-5,6′-[2,7]methanopyrido[1,2-a][1,4]diazonin]-12′-yl (2,5,8,11,14,17,20-heptaoxadocosan-22-yl) carbonate]",37600 nM,
8.68,"CCCCCCCCCOC(=O)Oc1c2n(cc(C(=O)NCc3ccc(F)cc3F)c1=O)[C@@H]1CN(C2=O)[C@@H](C)CC[C@]12CC(C)=NO2 [Example 137, (3′S,5S,7′R)-10′-((2,4-difluorobenzyl)carbamoyl)-3,3′-dimethyl-1′,11′-dioxo-1′,4′,5′,11′-tetrahydro-3′H,4H,7′H-spiro[isoxazole-5,6′-[2,7]methanopyrido[1,2-a][1,4]diazonin]-12′-yl nonyl carbonate]",10200 nM,
8.41,"COC1=NO[C@@]2(CC[C@H](C)N3C[C@H]2n2cc(C(=O)NCc4ccc(F)cc4F)c(=O)c(OCOC(=O)CCCCC(C)C)c2C3=O)C1 [Example 114, (((3′S,5S,7′R)-10′-((2,4-difluorobenzyl)carbamoyl)-3-methoxy-3′-methyl-1′,11′-dioxo-1′,4′,5′,11′-tetrahydro-3′H,4H,7′H-spiro[isoxazole-5,6′-[2,7]methanopyrido[1,2-a][1,4]diazonin]-12′-yl)oxy)methyl 6-methylheptanoate]",19700 nM,
